“And” between values parts separate entries of the source, which are not always exact repeats. Equal values may be shown once. Toxic doses and inconclusive results are not listed.
Tested on: BDF1 mice, P388 leukemia ip, median survival T/C
Assay: NCI In Vivo Anticancer Drug Screen. Data for tumor model P388 Leukemia (intraperitoneal) in B6D2F1 (BDF1) mice
Conditions: endpoint: median survival time, higher = longer survival
In short: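 Transplantable tumour in mice; compound vs vehicle dosing; survival scored; ratio of treated to control reported.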

[1] = dose: 6.25 mg/kg/injection, schedule: Q01DX009 (ip), vehicle: Klucel (hydroxypropylcellulose) (HPC)
[2] = dose: 12.5 mg/kg/injection, schedule: Q01DX009 (ip), vehicle: Klucel (hydroxypropylcellulose) (HPC)
[3] = dose: 50.0 mg/kg/injection, schedule: Q01DX009 (ip), vehicle: saline with Tween-80
[4] = dose: 100.0 mg/kg/injection, schedule: Q01DX009 (ip), vehicle: saline with Tween-80
[5] = dose: 200.0 mg/kg/injection, schedule: Q01DX009 (ip), vehicle: saline with Tween-80
[6] = dose: 100.0 mg/kg/injection, schedule: Q04DX003 (ip), vehicle: saline with Tween-80
[7] = dose: 200.0 mg/kg/injection, schedule: Q04DX003 (ip), vehicle: saline with Tween-80
[8] = dose: 400.0 mg/kg/injection, schedule: Q04DX003 (ip), vehicle: saline with Tween-80
[9] = dose: 25.0 mg/kg/injection, schedule: Q01DX009 (ip), vehicle: saline
[10] = dose: 50.0 mg/kg/injection, schedule: Q01DX009 (ip), vehicle: saline
[11] = dose: 100.0 mg/kg/injection, schedule: Q01DX009 (ip), vehicle: saline
[12] = dose: 25.0 mg/kg/injection, schedule: Q01DX009 (ip), vehicle: Klucel (hydroxypropylcellulose) (HPC)
[13] = dose: 50.0 mg/kg/injection, schedule: Q01DX010 (ip), vehicle: saline
[14] = dose: 200.0 mg/kg/injection, schedule: Q01DX010 (ip), vehicle: saline
[15] = dose: 400.0 mg/kg/injection, schedule: Q01DX010 (ip), vehicle: saline

## CC1=CCC2C(=O)C=CC(=O)C2C1 (centres undefined)
dose: 0.57 mg/kg/injection, schedule: Q01DX009 (ip), vehicle: Klucel (hydroxypropylcellulose) (HPC)
  T/C: 120 % of control
dose: 0.85 mg/kg/injection, schedule: Q01DX009 (ip), vehicle: Klucel (hydroxypropylcellulose) (HPC)
  T/C: 115 % of control
dose: 2.0 mg/kg/injection, schedule: Q01DX009 (ip), vehicle: Klucel (hydroxypropylcellulose) (HPC)
  T/C: 118 % of control
dose: 3.12 mg/kg/injection, schedule: Q04DX003 (ip), vehicle: Klucel (hydroxypropylcellulose) (HPC)
  T/C: 100 % of control
dose: 4.12 mg/kg/injection, schedule: Q01DX009 (ip), vehicle: Klucel (hydroxypropylcellulose) (HPC)
  T/C: 109 % of control and 110 % of control
dose: 5.0 mg/kg/injection, schedule: Q04DX003 (ip), vehicle: Klucel (hydroxypropylcellulose) (HPC)
  T/C: 104 % of control
[1]
  T/C: 95 % of control and 120 % of control
dose: 6.25 mg/kg/injection, schedule: Q04DX003 (ip), vehicle: Klucel (hydroxypropylcellulose) (HPC)
  T/C: 109 % of control
dose: 9.37 mg/kg/injection, schedule: Q01DX009 (ip), vehicle: Klucel (hydroxypropylcellulose) (HPC)
  T/C: 104 % of control and 115 % of control
dose: 10.0 mg/kg/injection, schedule: Q04DX003 (ip), vehicle: Klucel (hydroxypropylcellulose) (HPC)
  T/C: 109 % of control
[2]
  T/C: 90 % of control
dose: 12.5 mg/kg/injection, schedule: Q04DX003 (ip), vehicle: Klucel (hydroxypropylcellulose) (HPC)
  T/C: 90 % of control
dose: 18.0 mg/kg/injection, schedule: Q01DX009 (ip), vehicle: Klucel (hydroxypropylcellulose) (HPC)
  T/C: 113 % of control

## C(=C\C1CC2CCCN2O1)/c1ccccc1 (centres undefined)
dose: 25.0 mg/kg/injection, schedule: Q01DX009 (ip), vehicle: saline with Tween-80
  T/C: 100 % of control
[3]
  T/C: 102 % of control and 105 % of control
[4]
  T/C: 100 % of control
[5]
  T/C: 98 % of control and 102 % of control

## Cc1ncc([N+](=O)[O-])n1CCOc1c(Br)cc(Br)cc1CN(C)C1CCCCC1
[6]
  T/C: 100 % of control
[7]
  T/C: 105 % of control
[8]
  T/C: 115 % of control

## CCOC1(c2ccccc2)c2cc(Cl)ccc2NC(=O)N1CC (centres undefined)
[3]
  T/C: 101 % of control
[4]
  T/C: 98 % of control
[5]
  T/C: 94 % of control

## Cc1cc2c(C(C)C)c(O)c(O)c(C=O)c2c(O)c1-c1c(C)cc2c(C(C)C)c(O)c(O)c(C=O)c2c1O
dose: 1.25 mg/kg/injection, schedule: Q01DX009 (ip), vehicle: saline with Tween-80
  T/C: 124 % of control
dose: 2.5 mg/kg/injection, schedule: Q01DX009 (ip), vehicle: saline with Tween-80
  T/C: 120 % of control

## Cc1ccc2c(c1)NC(c1ccc(C(N)=S)cc1)N2 (centres undefined)
dose: 25.0 mg/kg/injection, schedule: Q04DX003 (ip), vehicle: saline with Tween-80
  T/C: 97 % of control
dose: 50.0 mg/kg/injection, schedule: Q04DX003 (ip), vehicle: saline with Tween-80
  T/C: 88 % of control
[6]
  T/C: 87 % of control

## c1ccc(Oc2c3ccccc3nc3ccccc23)cc1
dose: 50.0 mg/kg/injection, schedule: Q01DX005 (ip), vehicle: saline with Tween-80
  T/C: 123 % of control

## Cc1cc(C)c(C(=O)CC(=O)c2cccnc2)c(C)c1
dose: 100.0 mg/kg/injection, schedule: Q01DX009 (ip), vehicle: other
  T/C: 115 % of control
dose: 100.0 mg/kg/injection, schedule: Q04DX003 (ip), vehicle: other
  T/C: 100 % of control
dose: 200.0 mg/kg/injection, schedule: Q01DX009 (ip), vehicle: other
  T/C: 120 % of control
dose: 200.0 mg/kg/injection, schedule: Q04DX003 (ip), vehicle: other
  T/C: 100 % of control
dose: 400.0 mg/kg/injection, schedule: Q01DX009 (ip), vehicle: other
  T/C: 110 % of control
dose: 400.0 mg/kg/injection, schedule: Q04DX003 (ip), vehicle: other
  T/C: 100 % of control

## C[C@H]1[C@H](C)CC[C@]2(CO)CC[C@]3(C)C(=CC[C@@H]4[C@@]5(C)CC[C@@H](O)C(C)(C)[C@@H]5CC[C@]43C)[C@H]12
dose: 50.0 mg/kg/injection, schedule: Q01DX010 (ip), vehicle: acetone
  T/C: 120 % of control
dose: 400.0 mg/kg/injection, schedule: Q01DX010 (ip), vehicle: acetone
  T/C: 110 % of control

## NCCc1c[nH]c2ccc(F)cc12
dose: 12.5 mg/kg/injection, schedule: Q01DX009 (ip), vehicle: saline
  T/C: 91 % of control
[9]
  T/C: 98 % of control
[10]
  T/C: 98 % of control
[11]
  T/C: 91 % of control

## CCOC(=O)C1c2cccc(O)c2C=CN1C(C)=O (centres undefined)
[6]
  T/C: 91 % of control
[7]
  T/C: 91 % of control
[8]
  T/C: 95 % of control

## Cc1ccn(C)c(=O)c1
[9]
  T/C: 86 % of control
[10]
  T/C: 86 % of control
[11]
  T/C: 86 % of control and 100 % of control
dose: 200.0 mg/kg/injection, schedule: Q01DX009 (ip), vehicle: saline
  T/C: 105 % of control

## CC(=O)OC1CCC2(C)C3=C(CCC2C1)C1C(OC(=O)c2ccccc2[N+](=O)[O-])CC(c2ccc(=O)oc2)C1(C)CC3 (centres undefined)
dose: 0.25 mg/kg/injection, schedule: Q01DX009 (ip), vehicle: Klucel (hydroxypropylcellulose) (HPC)
  T/C: 102 % of control
dose: 0.5 mg/kg/injection, schedule: Q01DX009 (ip), vehicle: Klucel (hydroxypropylcellulose) (HPC)
  T/C: 111 % of control
dose: 1.0 mg/kg/injection, schedule: Q01DX009 (ip), vehicle: Klucel (hydroxypropylcellulose) (HPC)
  T/C: 100 % of control

## CCCCC(=O)OCC1OC(n2cnc3c(=S)nc[nH]c32)C(OC(=O)CCCC)C1OC(=O)CCCC (centres undefined)
dose: 12.5 mg/kg/injection, schedule: Q01DX009 (sc), vehicle: olive oil, sesame oil, peanut oil
  T/C: 100 % of control
dose: 25.0 mg/kg/injection, schedule: Q01DX009 (sc), vehicle: olive oil, sesame oil, peanut oil
  T/C: 91 % of control
dose: 50.0 mg/kg/injection, schedule: Q01DX009 (sc), vehicle: olive oil, sesame oil, peanut oil
  T/C: 100 % of control
dose: 100.0 mg/kg/injection, schedule: Q01DX009 (sc), vehicle: olive oil, sesame oil, peanut oil
  T/C: 96 % of control
dose: 100.0 mg/kg/injection, schedule: Q04DX003 (sc), vehicle: olive oil, sesame oil, peanut oil
  T/C: 108 % of control
dose: 200.0 mg/kg/injection, schedule: Q04DX003 (sc), vehicle: olive oil, sesame oil, peanut oil
  T/C: 108 % of control
dose: 400.0 mg/kg/injection, schedule: Q04DX003 (sc), vehicle: olive oil, sesame oil, peanut oil
  T/C: 116 % of control

## Fc1ccc(P(c2ccc(F)cc2)c2ccc(F)cc2)cc1
dose: 3.12 mg/kg/injection, schedule: Q01DX009 (ip), vehicle: Klucel (hydroxypropylcellulose) (HPC)
  T/C: 92 % of control
[1]
  T/C: 92 % of control
[2]
  T/C: 107 % of control
[12]
  T/C: 100 % of control
dose: 50.0 mg/kg/injection, schedule: Q01DX009 (ip), vehicle: Klucel (hydroxypropylcellulose) (HPC)
  T/C: 96 % of control
dose: 50.0 mg/kg/injection, schedule: Q04DX003 (ip), vehicle: Klucel (hydroxypropylcellulose) (HPC)
  T/C: 100 % of control
dose: 100.0 mg/kg/injection, schedule: Q04DX003 (ip), vehicle: Klucel (hydroxypropylcellulose) (HPC)
  T/C: 87 % of control
dose: 200.0 mg/kg/injection, schedule: Q04DX003 (ip), vehicle: Klucel (hydroxypropylcellulose) (HPC)
  T/C: 95 % of control

## COc1ccc2c3c(ccc2c1)C1=C(C(=O)O)CC(=O)C1(C)CC3 (centres undefined)
dose: 100.0 mg/kg/injection, schedule: Q04DX003 (sc), vehicle: steriod suspending solution
  T/C: 108 % of control
dose: 200.0 mg/kg/injection, schedule: Q04DX003 (sc), vehicle: steriod suspending solution
  T/C: 100 % of control
dose: 400.0 mg/kg/injection, schedule: Q04DX003 (sc), vehicle: steriod suspending solution
  T/C: 95 % of control

## O=C1C(NC(=O)C2CCCCC2)=C(N2CC2)C(=O)C(NC(=O)C2CCCCC2)=C1N1CC1
[12]
  T/C: 123 % of control
[13]
  T/C: 118 % of control
dose: 100.0 mg/kg/injection, schedule: Q01DX009 (ip), vehicle: Klucel (hydroxypropylcellulose) (HPC)
  T/C: 106 % of control
[14]
  T/C: 150 % of control and 209 % of control
[15]
  T/C: 86 % of control

## CC(C)(C)CC(C)(C)c1c(O)cc(O)cc1Cl
dose: 12.5 mg/kg/injection, schedule: Q01DX009 (ip), vehicle: gum acacia
  T/C: 99 % of control
dose: 25.0 mg/kg/injection, schedule: Q01DX009 (ip), vehicle: gum acacia
  T/C: 91 % of control
dose: 50.0 mg/kg/injection, schedule: Q01DX009 (ip), vehicle: gum acacia
  T/C: 89 % of control

## CCC(/C=C\C(C)C1CCC2C3CC=C4CC(O)CCC4(C)C3CCC12C)C(C)C (centres undefined)
[13]
  T/C: 104 % of control
dose: 100.0 mg/kg/injection, schedule: Q01DX010 (ip), vehicle: saline
  T/C: 108 % of control
[14]
  T/C: 100 % of control
[15]
  T/C: 91 % of control

## C(=C\c1ccc2ccc(/C=C/c3ccccc3)cc2c1)/c1ccccc1
[6]
  T/C: 112 % of control
[7]
  T/C: 90 % of control
[8]
  T/C: 105 % of control

Source: PubChem BioAssay AID328 (DTP/NCI, 2004)
